We go through three molecules from publication PMC6689899, “An essential bifunctional enzyme in Mycobacterium tuberculosis for itaconate dissimilation and leucine catabolism” (Proceedings of the National Academy of Sciences of the …, 2019).

The target of one series is T1, Rv2498c (Mycobacterium tuberculosis, UniProt P9WPE1).
T1 construct: gene citE

Series [1] deals with CC(=O)SCCNC(=O)CCNC(=O)[C@H](O)C(C)(C)COP(=O)(O)OP(=O)(O)OC[C@H]1O[C@@H](n2cnc3c(N)ncnc32)[C@H](O)[C@@H]1OP(=O)(O)O. The experiment in a line: purified protein.

T1 sequence (P9WPE1 whole entry): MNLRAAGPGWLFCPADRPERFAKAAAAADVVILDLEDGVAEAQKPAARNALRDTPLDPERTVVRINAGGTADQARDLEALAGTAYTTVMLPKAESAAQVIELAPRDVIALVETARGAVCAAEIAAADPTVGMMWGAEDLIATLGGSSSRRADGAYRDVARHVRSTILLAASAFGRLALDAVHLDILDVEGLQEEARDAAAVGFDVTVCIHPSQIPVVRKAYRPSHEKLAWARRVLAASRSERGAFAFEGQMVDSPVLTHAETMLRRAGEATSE

On to `CC(=O)CC(=O)O` [acetoacetate], for which the X-ray crystal structure entry at Rv2498c was “complexes with (S)-citramalyl-CoA (PDB ID code 6AQ4) and with acetoacetate:CoA (PDB ID code 6AS5)”.

The term Km denotes the concentration of substrate that gives half-maximal velocity. Usually kcat/Km stands for the turnover number divided by the Michaelis constant. Turning to “Rv1837c (Mycobacterium tuberculosis H37Rv)”, in series [1], the Michaelis-Menten constant (Km) was 45 ± 9 µM and the catalytic efficiency (kcat/Km) stood at 1.7e+06 M⁻¹ s⁻¹. Take `CC(C)(COP(=O)(O)OP(=O)(O)OC[C@H]1O[C@@H](n2cnc3c(N)ncnc32)[C@H](O)[C@@H]1OP(=O)(O)O)[C@@H](O)C(=O)NCCC(=O)NCCS` [CoA]: the X-ray crystal structure result at Rv2498c was “complexes with (S)-citramalyl-CoA (PDB ID code 6AQ4) and with acetoacetate:CoA (PDB ID code 6AS5)”.
